Source: patent publication US4058621A, “Iron complexes and foodstuffs containing them” (priority 1975, dated 1977)

What was measured:
[1] = maximum amount of iron which can be complexed with galacturonic acid; assay type: physicochemical
Method: 25.5 grams of high-purity galacturonic acid were dissolved in 300 ml of distilled water with the addition of solid sodium carbonate until a pH of 8 to 9 was reached. Separately, 24 grams of anhydrous ferric chloride were dissolved in 300 ml of distilled water and this solution was then added slowly, by dropping funnel, to the aforementioned solution of galacturonic acid, adjusting with solid sodium carbonate as needed to keep the mixture slightly alkaline, e.g. pH 8-9, and keeping the mixture stirred moderately. A beautiful brown-red solution was thus obtained. In order to ascertain the maximum amount of iron which can be complexed with galacturonic acid, a solution of 189.9 grams of anhydrous ferric chloride was dissolved in 1500 ml of distilled water, and this solution was added gradually to the above solution, with good stirring, and always adjusting the alkalinity to a pH of 8-9. […] A light-brown precipitate then appeared which, however, was dissolved again completely in about an hour's time and a perfectly clear, deep brown-red solution again resulted. From the total amounts of galacturonic acid used and ferric chloride solution consumed in the test, it was calculated that one mol weight of galacturonic acid will complex three atom weights of iron. Actually, 2,989 atom-weights of iron were consumed, an amount well within experimental error.

rats = conditions: oral ingestion; cited from earlier work
rabbits = conditions: intravenous route; cited from earlier work
anemic rat = test: curative test: bioavailability of iron / hemoglobin repletion in the anemic rat (cyanomethemoglobin method of Drabkin); assay type: in vivo, rat (male albino, Wistar-derived stock); conditions: for improvement in hemoglobin: 0.2 mg iron per day
From the text: The "curative" test results can be obtained in an oral administration technique, wherein the test animals are fed a prescribed iron-poor diet and are brought to an anemic condition through a controlled experimental technique. […] This test technique is generally standardized and has been used, with many variations, to determine bioavailability of iron in a variety of hematinics.
Reagent grade ferrous sulfate heptahydrate (Fisher Scientific Co.) was used without further purification at the calculated iron content of 20.1%.
Weanling male albino rats (Wistar-derived stock weighing between 45 and 55 grams) were placed in individual cages (newly galvanized) and provided with food and distilled water, ad libitum. The iron-low diet was that described by Pla and Fritz (J. Assoc. Offic. Anal. Chem. 54, 18 (1971). Weekly determination of hemoglobin content in tail blood was determined by the cyanomethemoglobin method of Drabkin adapted to 0.02 ml samples as recommended by these authors.
18 rats were selected for the test from a larger number to provide three matched groups of six, each having essentially equal initial hemoglobin values.
The solution prepared on Fridays was also dosed on Saturdays and Sundays. The solutions were administered by intragastric intubulation. The Negative Control Group received sham treatment consisting of plain water.
Body weights of all animals were recorded weekly and hemoglobin determinations were repeated after two and four weeks of dosing.

humans = conditions: not without risk of some serious side effects; cited from earlier work

| Compound | iron actually consumed per mol weight of galacturonic acid ([1]; pH 8-9) | iron complexed per mol weight of galacturonic acid ([1]; pH 8-9, calculated from amounts consumed) | LD50 (rats) | LD50 (rabbits) | improvement in hemoglobin (anemic rat; after four weeks of dosing) | improvement in hemoglobin (anemic rat; after two weeks of dosing) | body weight gain (anemic rat; as compared to the Example 1 Group, differences were nominal) | efficacy in reversing mild deficiency anemia (anemic rat; conclusion of the test) | tolerated oral dosage (humans) |
| --- | --- | --- | --- | --- | --- | --- | --- | --- | --- |
| O=C[C@H](O)[C@@H](O)[C@@H](O)[C@H](O)C(=O)O [galacturonic acid] | 2,989 atom-weights of iron | three |  |  |  |  |  |  |  |
| ferrous sulfate |  |  | 5,000 milligrams per kilogram of body weight | 99 milligrams per kilogram of body weight | significant improvement | significant improvement | averaged slightly better | reversing mild deficiency anemia | about 300 milligrams |
